Data on five compounds can be found in patent US4198507A (Hoffmann-La Roche Inc., priority 1978, dated 1980).

The subject of one data set is Mice. As to the kind of experiment: Acute toxicity, mice p.o. (72 hours). The data set is classed as in vivo. The method, then: 1. Acute Toxicity LC50 Mice p.o. (72 hours)
The conditions of data set [1]: prior art; cited from earlier work.
The test system of another data set is gastrointestinal tract. To be noted: compared with the parent xanthines; prior art; cited from earlier work.
For data set [2] the following is noted: prior art; cited from earlier work. The source holds these as a separate data set.

For the compound `O=C(O)c1ccccc1O` [Magnesium Sailicylate, magnesium salicylate], in the data set on Mice, the “Acute Toxicity LC50” value was 1200 ± 53 mg.

As for `Cn1cnc2c1c(=O)[nH]c(=O)n2C` [theobromine sodium salicylate], the “water solubility (in words)” value in data set [1] is given as “soluble”.

As for `Cn1c(=O)c2[nH]cnc2n(C)c1=O` [Theophylline anhydrous, 1, 3, dimethyl xanthine], in the data set on Mice, the “Acute Toxicity LC50” value amounted to 460 ± 35 mg.

On to `CC(=O)[O-].Cn1c(=O)c2[nH]cnc2n(C)c1=O.[Na+]` [theophylline sodium acetate], for which the “water solubility (in words)” value in data set [1] was “soluble in water”.

With theophylline calcium salicylate, the “tolerance in the gastrointestinal tract” value in the data set with gastrointestinal tract is “better tolerated”. Moreover, the “reaction in aqueous solutions or suspensions” value in data set [2] is “alkaline reactions”.
